Where two headings read alike, the source gives them in different places.
Tests used:
[1] = test system: p-eIF2α; assay: Cellular PERK inhibition: p-eIF2a TR-FRET in tunicamycin-treated HEK293-EGFP-eIF2a cells; assay type: cell-based
Procedure: Methods used to evaluate in vitro cellular PERK inhibition are described and published elsewhere. In brief, stableHEK293 cells were created using lentiviral particles harboring a GFP-eIF2a expression vector. Transfectants were selected by puromycin and enriched using fluorescent cell sorting based on GFP expression. HEK293-EGFP-eIF2a cells were plated at 5000 cells/well in 384-well assay plates and incubated overnight. The following day, pyrrolopyrimidine analogs were added to wells using an Echo acoustic dispenser and incubated for 30 min. ER stress was induced by the addition of tunicamycin to the wells at […] for 2 h. Cells were lysed and peIF2a was evaluated using a TR-FRET system, as described above.
(§1) The PERK activity of analog I was evaluated using cell-free biochemical assays. In these assays, PERK phosphorylation of eIF2a was assessed using a FRET-based labelled protein assay. Compounds were then evaluated for cellular activity by quantifying inhibition of eIF2a phosphorylation in HEK293 cells treated with the ER inducer tunicamycin [7].

[2] = target: T1, PERK (Homo sapiens, UniProt Q9NZJ5); assay: PERK biochemical LanthaScreen TR-FRET assay (GFP-eIF2a phosphorylation)
T1 sequence (Q9NZJ5 30-1116): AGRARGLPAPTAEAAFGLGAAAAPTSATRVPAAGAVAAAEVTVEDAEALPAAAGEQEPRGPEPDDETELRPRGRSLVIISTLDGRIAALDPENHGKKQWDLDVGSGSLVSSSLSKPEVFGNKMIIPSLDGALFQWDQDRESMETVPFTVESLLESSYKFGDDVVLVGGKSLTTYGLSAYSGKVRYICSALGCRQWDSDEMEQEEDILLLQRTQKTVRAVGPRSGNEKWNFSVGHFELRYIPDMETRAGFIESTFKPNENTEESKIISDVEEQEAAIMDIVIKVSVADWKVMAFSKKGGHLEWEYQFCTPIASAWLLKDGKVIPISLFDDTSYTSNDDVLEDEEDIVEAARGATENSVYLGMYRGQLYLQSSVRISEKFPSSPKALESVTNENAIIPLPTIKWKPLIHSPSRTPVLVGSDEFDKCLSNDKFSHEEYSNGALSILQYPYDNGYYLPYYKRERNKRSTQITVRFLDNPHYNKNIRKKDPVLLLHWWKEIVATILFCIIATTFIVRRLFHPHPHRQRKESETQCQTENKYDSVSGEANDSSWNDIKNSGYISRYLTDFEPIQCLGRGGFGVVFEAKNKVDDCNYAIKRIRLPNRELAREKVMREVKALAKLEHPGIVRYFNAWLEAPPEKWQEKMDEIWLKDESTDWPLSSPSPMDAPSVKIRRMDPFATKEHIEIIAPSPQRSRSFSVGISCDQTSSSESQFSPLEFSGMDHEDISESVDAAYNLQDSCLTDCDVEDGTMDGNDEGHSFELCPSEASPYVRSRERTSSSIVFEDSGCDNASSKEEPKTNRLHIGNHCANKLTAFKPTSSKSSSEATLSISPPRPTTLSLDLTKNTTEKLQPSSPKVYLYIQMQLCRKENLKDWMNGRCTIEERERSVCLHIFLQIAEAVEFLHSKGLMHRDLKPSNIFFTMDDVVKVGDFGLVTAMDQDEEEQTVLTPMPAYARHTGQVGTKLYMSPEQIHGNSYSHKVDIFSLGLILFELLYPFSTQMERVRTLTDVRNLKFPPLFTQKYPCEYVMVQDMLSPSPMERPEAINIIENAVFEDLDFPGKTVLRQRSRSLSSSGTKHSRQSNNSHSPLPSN
Procedure: Methods used to evaluate biochemical PERK activity are described and published elsewhere. In brief, biochemical PERK activity is evaluated using a LanthaScreenTM ([…]) TR-FRET assay to detect phosphorylation of a GFP-tagged eIF2a substrate (ThermoFisher). Excitation at […] of a terbium chelate donor fluorophore in an eIF2a antibody results in energy transfer to GFP acceptor fluorophore upon eIF2a phosphorylation by PERK. Reaction buffer was composed of 50 mM HEPES (pH 7.4), 10 mM MgCl2, 1 mM EGTA and 0.01% (v/v) BrijTM-35. Reactions were initiated by the addition of substrate and ATP, followed by incubation for 1 h at RT prior to addition of EDTA and the anti-peIF2a antibody. FRET was measured by an EnVision Plate Reader (PerkinElmer). Data were plotted as percent inhibition along a 10-point 3-fold dilution series of inhibitors. IC50 values were calculated using 4-parameter logistical fitting in XLFit.
as §1

[3] = Homo sapiens, HEK293 cells, tunicamycin-induced ER stress, read-out: p-eIF2α IC50
[4] = cell-free TR-FRET, GFP-eIF2a substrate, read-out: PERK IC50
[5] = bound stated, read-out: cellular potency
[6] = bound stated, read-out: biochemical potency

Row | IC50 [1, 3] [nM] | IC50 [2, 4] [nM] | IC50 [1, 5] [nM] | IC50 [2, 6] [nM] | SMILES
1 | 532 | 300 |  |  | Cc1cc(NC(=O)C(F)(F)c2ccccc2)ccc1-c1cn(C)c2ncnc(N)c12 [Compound 17]
2 | 1930 | 126 |  |  | Cc1cc(NC(=O)CCc2ccccc2)ccc1-c1cn(C)c2ncnc(N)c12 [Compound 15]
3 | 8.5 | 2.9 |  |  | Cc1nc(N)c2c(-c3ccc(NC(=O)[C@H](O)c4cc(F)cc(Cl)c4)cc3C)cn(C)c2n1 [Compound 40]
4 | 14 |  | < 15 | < 5 | CCc1cccc([C@@H](O)C(=O)Nc2ccc(-c3cn(C)c4nc(C)nc(N)c34)c(Cl)c2)c1 [Compound 57]
5 | 26 | 1 |  |  | Cc1nc(N)c2c(-c3ccc(NC(=O)[C@H](O)c4cccc(F)c4)c(F)c3)cn(C)c2n1 [Compound 69]
6 | 325 | 8 |  |  | Cc1nc(N)c2c(-c3ccc(NC(=O)[C@H](O)c4cccc(C#N)c4)cc3C)cn(C)c2n1 [Compound 36]
7 | 21 | 5.9 |  |  | Cc1nc(N)c2c(-c3ccc(NC(=O)[C@H](O)c4cccc(C(F)F)c4)cc3C)cn(C)c2n1 [Compound 34]
8 | 14 | 3 |  |  | Cc1nc(N)c2c(-c3ccc(NC(=O)[C@H](O)c4cccc(Br)c4)cc3C)cn(C)c2n1 [Compound 33]
9 | 82 | 13 |  |  | Cc1nc(N)c2c(-c3c(C)cc(NC(=O)C(O)c4cccc(F)c4)cc3C)cn(C)c2n1 (stereo not drawn) [Compound 68]
10 | 83 | 14 |  |  | Cc1cccc([C@@H](O)C(=O)Nc2ccc(-c3cn(C)c4nc(C)nc(N)c34)c(C)c2)c1 [Compound 30]
11 | 11 | 1.1 | < 15 | < 5 | Cc1cc(F)cc([C@@H](O)C(=O)Nc2ccc(-c3cn(C)c4nc(C)nc(N)c34)c(F)c2)c1 [Compound 52]
12 | 581 | 33 |  |  | Cc1cc(NC(=O)[C@H](N)c2ccccc2)ccc1-c1cn(C)c2ncnc(N)c12 [Compound 23]
13 | 174 | 14 |  |  | CO[C@@H](C(=O)Nc1ccc(-c2cn(C)c3ncnc(N)c23)c(C)c1)c1ccccc1 [Compound 21]
14 | 21 | 2.7 |  |  | Cc1nc(N)c2c(-c3ccc(NC(=O)[C@H](O)c4cccc(C(F)(F)F)c4)cc3Cl)cn(C)c2n1 [Compound 54]
15 | 17 | 1.6 |  |  | Cc1nc(N)c2c(-c3ccc(NC(=O)[C@H](O)c4cccc(Cl)c4)cc3Cl)cn(C)c2n1 [Compound 55]
16 | 303 | 102 |  |  | Cc1nc(N)c2c(-c3ccc(NC(=O)[C@H](O)c4ccccc4F)cc3C)cn(C)c2n1 [Compound 25]
17 | 41 | 5.2 |  |  | Cc1cc(NC(=O)Cc2ccccc2)ccc1-c1cn(C)c2ncnc(N)c12 [Compound 14]
18 | 122 | 26 |  |  | Cc1nc(N)c2c(-c3ccc(NC(=O)C(O)c4ccccc4C)cc3C)cn(C)c2n1 (stereo not drawn) [Compound 31]
19 | 41 | 4 |  |  | CCc1cc(NC(=O)[C@H](O)c2cccc(F)c2)ccc1-c1cn(C)c2nc(C)nc(N)c12 [Compound 59]
20 | 204 | 8.5 |  |  | Cc1nc(N)c2c(-c3ccc(NC(=O)[C@H](O)c4cccc(F)c4)cc3C(F)(F)F)cn(C)c2n1 [Compound 58]

Row | IC50 [1, 3] [nM] | IC50 [2, 4] [nM] | IC50 [1, 5] [nM] | IC50 [2, 6] [nM] | SMILES
21 | 62 | 2.7 |  |  | Cc1nc(N)c2c(-c3ccc(NC(=O)[C@H](O)c4cc(F)cc(C(F)(F)F)c4)cc3F)cn(C)c2n1 [Compound 51]
22 | 18 | 4.1 |  |  | Cc1cccc([C@@H](O)C(=O)Nc2ccc(-c3cn(C)c4nc(C)nc(N)c34)c(Cl)c2)c1 [Compound 56]
23 | 3960 | 168 |  |  | Cc1cc(NC(=O)c2ccccc2)ccc1-c1cn(C)c2ncnc(N)c12 [Compound 16]
24 | 17 | 5.9 |  |  | Cc1nc(N)c2c(-c3ccc(NC(=O)[C@H](O)c4cccc(C5CC5)c4)cc3C)cn(C)c2n1 [Compound 35]
25 | 14 | 1.5 |  |  | Cc1nc(N)c2c(-c3ccc(NC(=O)[C@H](O)c4cccc(Br)c4)cc3)cn(C)c2n1 [Compound 64]
26 | 2050 | 343 |  |  | Cc1nc(N)c2c(-c3ccc(NC(=O)C(O)c4ccccc4C(F)(F)F)cc3C)cn(C)c2n1 (stereo not drawn) [Compound 27]
27 | 25 | 0.9 |  |  | CCc1cccc([C@@H](O)C(=O)Nc2ccc(-c3cn(C)c4nc(C)nc(N)c34)c(F)c2)c1 [Compound 50]
28 | 1850 | 236 |  |  | COc1cc(NC(=O)[C@H](O)c2cccc(F)c2)ccc1-c1cn(C)c2nc(C)nc(N)c12 [Compound 60]
29 | 435 | 23 |  |  | Cc1nc(N)c2c(-c3ccc(NC(=O)[C@H](O)c4cccc(F)c4)cc3OC(F)(F)F)cn(C)c2n1 [Compound 61]
30 | 41 | 2.2 |  |  | Cc1nc(N)c2c(-c3ccc(NC(=O)[C@H](O)c4cccc(F)c4)cc3F)cn(C)c2n1 [Compound 46]
31 | 146 | 8.3 |  |  | Cc1nc(N)c2c(-c3cnc(NC(=O)[C@H](O)c4cccc(F)c4)cc3C)cn(C)c2n1 [Compound 74]
32 | 56 | 17 |  |  | Cc1nc(N)c2c(-c3ccc(NC(=O)[C@H](O)c4cccc(F)c4)cc3Cl)cn(C)c2n1 [Compound 53]
33 | 57 | 7.8 |  |  | Cc1cc(NC(=O)[C@@H](O)c2cccc(F)c2)ccc1-c1cn(C)c2ncnc(N)c12 [Compound 12, (S)-N-(4-(4-amino-7-methyl-7H-pyrrolo[2,3-d]pyrimidin-5-yl)-3-methylphenyl) -2-(3-fluorophenyl) -2-hydroxyacetamide]
34 | > 10000 | 647 |  |  | Cc1nc(N)c2c(-c3cnc(NC(=O)[C@H](O)c4cccc(F)c4)nc3C)cn(C)c2n1 [Compound 76]
35 | 17 | 1.1 |  |  | Cc1cccc([C@@H](O)C(=O)Nc2ccc(-c3cn(C)c4nc(C)nc(N)c34)c(F)c2)c1 [Compound 49]
36 | 11 | 5.1 | < 15 | < 5 | Cc1nc(N)c2c(-c3ccc(NC(=O)[C@H](O)c4cccc(C(F)(F)F)c4)cc3F)cn(C)c2n1 [Compound 47, (R)-N-(4-(4-amino-2,7-dimethyl-7H-pyrrolo[2,3-d]pyrimidin-5-yl)-3-fluorophenyl)-2-hydroxy-2-(3-(trifluoromethyl)phenyl)acetamide]
37 | 7.8 | 3 |  |  | C#Cc1cccc([C@@H](O)C(=O)Nc2ccc(-c3cn(C)c4nc(C)nc(N)c34)c(C)c2)c1 [Compound 32]
38 | 129 | 17 |  |  | Cc1nc(N)c2c(-c3ccc(NC(=O)[C@H](O)c4cncc(Cl)c4)cc3C)cn(C)c2n1 [Compound 44]
39 | 126 | 2 |  |  | Cc1nc(N)c2c(-c3ccc(NC(=O)[C@H](O)c4cccc(F)c4)cc3)cn(C)c2n1 [Compound 62]
40 | 184 | 56 |  |  | Cc1cc(NC(=O)C(C)(O)c2ccccc2)ccc1-c1cn(C)c2ncnc(N)c12 (stereo not drawn) [Compound 22]

Row | SMILES | IC50 [1, 3] [nM] | IC50 [2, 4] [nM] | IC50 [1, 5] [nM] | IC50 [2, 6] [nM]
41 | Cc1cc(NC(=O)Oc2ccccc2)ccc1-c1cn(C)c2ncnc(N)c12 [Compound 18] | > 10000 | 3980 |  | 

From article PMC9611727, “Optimization of a Novel Mandelamide-Derived Pyrrolopyrimidine Series of PERK Inhibitors” (Pharmaceutics, 2022)
